PubChem BioAssay (NCI)
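Abbreviation: GI50, concentration required for 50% inhibition of growth. Definition used: TGI = concentration required for complete inhibition of growth.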

Key:
Assay in all cases: NCI tumour cell line growth inhibition, 384-well format
786-0 renal = test system: 786-0 renal
A498 renal = test system: A498 renal
A549 NSCLC = test system: A549 NSCLC
ACHN renal = test system: ACHN renal
BT-549 breast = test system: BT-549 breast
CAKI-1 renal = test system: CAKI-1 renal
CCRF-CEM leukemia = test system: CCRF-CEM leukemia
COLO 205 colon = test system: COLO 205 colon
DU-145 prostate = test system: DU-145 prostate
EKVX NSCLC = test system: EKVX NSCLC
HCC-2998 colon = test system: HCC-2998 colon
HCT-15 colon = test system: HCT-15 colon
HL-60(TB) leukemia = test system: HL-60(TB) leukemia
HOP-62 NSCLC = test system: HOP-62 NSCLC
HOP-92 NSCLC = test system: HOP-92 NSCLC
HS 578T breast = test system: HS 578T breast
HT29 colon = test system: HT29 colon
IGROV1 ovarian = test system: IGROV1 ovarian
K-562 leukemia = test system: K-562 leukemia
KM12 colon = test system: KM12 colon
LOX IMVI melanoma = test system: LOX IMVI melanoma
M14 melanoma = test system: M14 melanoma
MALME-3M melanoma = test system: MALME-3M melanoma
MCF7 breast = test system: MCF7 breast
MDA-MB-231 breast = test system: MDA-MB-231 breast
MDA-MB-435 melanoma = test system: MDA-MB-435 melanoma
MOLT-4 leukemia = test system: MOLT-4 leukemia
NCI-H226 lung = test system: NCI-H226 lung
NCI-H23 lung = test system: NCI-H23 lung
NCI-H322M lung = test system: NCI-H322M lung
NCI-H460 NSCLC = test system: NCI-H460 NSCLC
NCI-H522 lung = test system: NCI-H522 lung
NCI/ADR-RES ovarian = test system: NCI/ADR-RES ovarian
OVCAR-3 ovarian = test system: OVCAR-3 ovarian
OVCAR-4 ovarian = test system: OVCAR-4 ovarian
OVCAR-5 ovarian = test system: OVCAR-5 ovarian
OVCAR-8 ovarian = test system: OVCAR-8 ovarian
PC-3 prostate = test system: PC-3 prostate
RPMI-8226 leukemia = test system: RPMI-8226 leukemia
RXF 393 renal = test system: RXF 393 renal
SF-268 CNS = test system: SF-268 CNS
SF-295 CNS = test system: SF-295 CNS
SF-539 CNS = test system: SF-539 CNS
SK-MEL-28 melanoma = test system: SK-MEL-28 melanoma
SK-MEL-5 melanoma = test system: SK-MEL-5 melanoma
SK-OV-3 ovarian = test system: SK-OV-3 ovarian
SN12C renal = test system: SN12C renal
SNB-19 CNS = test system: SNB-19 CNS
SNB-75 CNS = test system: SNB-75 CNS
SR leukemia = test system: SR leukemia
SW-620 colon = test system: SW-620 colon
T-47D breast = test system: T-47D breast
TK-10 renal = test system: TK-10 renal
UACC-257 melanoma = test system: UACC-257 melanoma
UACC-62 melanoma = test system: UACC-62 melanoma
UO-31 renal = test system: UO-31 renal

CCN1Cc2c(ccc(F)c2C#N)O[C@@H](C)CNC(=O)c2c(N)nn3ccc1nc23
GI50 ([…]-0 renal): 1340 nM | TGI (786-0 renal): 12900 nM | GI50 (A498 renal): 379 nM | TGI (A498 renal): 7560 nM | GI50 (A549 NSCLC): 585 nM | TGI (A549 NSCLC): 12100 nM | GI50 (ACHN renal): 385 nM | TGI (ACHN renal): 2060 nM | GI50 (BT-549 breast): 2680 nM | TGI (BT-549 breast): 15300 nM | GI50 (CAKI-1 renal): 523 nM | TGI (CAKI-1 renal): 1840 nM | GI50 (CCRF-CEM leukemia): 566 nM | TGI (CCRF-CEM leukemia): 10800 nM | GI50 (COLO 205 colon): 271 nM | TGI (COLO 205 colon): 1010 nM | GI50 (DU-145 prostate): 465 nM | TGI (DU-145 prostate): 2880 nM | GI50 (EKVX NSCLC): 563 nM | TGI (EKVX NSCLC): 10300 nM | GI50 (HCC-2998 colon): 4120 nM | TGI (HCC-2998 colon): 20900 nM | GI50 (HCT-15 colon): 757 nM | TGI (HCT-15 colon): 10300 nM | GI50 (HL-60(TB) leukemia): 1140 nM | TGI (HL-60(TB) leukemia): 3010 nM | GI50 (HOP-62 NSCLC): 1210 nM | TGI (HOP-62 NSCLC): 11200 nM | GI50 (HOP-92 NSCLC): 362 nM | TGI (HOP-92 NSCLC): 1850 nM | GI50 (HS 578T breast): 381 nM | TGI (HS 578T breast): 1950 nM | GI50 (HT29 colon): 694 nM | TGI (HT29 colon): 12400 nM | GI50 (IGROV1 ovarian): 566 nM | TGI (IGROV1 ovarian): 3350 nM | GI50 (K-562 leukemia): 66.4 nM | TGI (K-562 leukemia): 222 nM | TGI (KM12 colon): 14700 nM | GI50 (LOX IMVI melanoma): 529 nM | TGI (LOX IMVI melanoma): 1980 nM | GI50 (M14 melanoma): 364 nM | TGI (M14 melanoma): 1850 nM | GI50 (MALME-3M melanoma): 436 nM | TGI (MALME-3M melanoma): 2410 nM | GI50 (MCF7 breast): 3160 nM | TGI (MCF7 breast): 19400 nM | GI50 (MDA-MB-231 breast): 438 nM | TGI (MDA-MB-231 breast): 1970 nM | GI50 (MDA-MB-435 melanoma): 565 nM | TGI (MDA-MB-435 melanoma): 10500 nM | GI50 (MOLT-4 leukemia): 198 nM | TGI (MOLT-4 leukemia): 478 nM | GI50 (NCI-H226 lung): 1280 nM | TGI (NCI-H226 lung): 4700 nM | GI50 (NCI-H23 lung): 264 nM | TGI (NCI-H23 lung): 3480 nM | GI50 (NCI-H322M lung): 2200 nM | TGI (NCI-H322M lung): 18800 nM | GI50 (NCI-H460 NSCLC): 426 nM | TGI (NCI-H460 NSCLC): 11400 nM | GI50 (NCI-H522 lung): 528 nM | TGI (NCI-H522 lung): 14300 nM | GI50 (NCI/ADR-RES ovarian): 3890 nM | TGI (NCI/ADR-RES ovarian): 15800 nM | GI50 (OVCAR-3 ovarian): 1420 nM | TGI (OVCAR-3 ovarian): 11200 nM | GI50 (OVCAR-4 ovarian): 2400 nM | TGI (OVCAR-4 ovarian): 17300 nM | GI50 (OVCAR-5 ovarian): 735 nM | TGI (OVCAR-5 ovarian): 9020 nM | GI50 (OVCAR-8 ovarian): 2740 nM | TGI (OVCAR-8 ovarian): 13800 nM | GI50 (PC-3 prostate): 1380 nM | TGI (PC-3 prostate): 17600 nM | GI50 (RPMI-8226 leukemia): 205 nM | TGI (RPMI-8226 leukemia): 598 nM | GI50 (RXF 393 renal): 1320 nM | TGI (RXF 393 renal): 7180 nM | GI50 (SF-268 CNS): 1760 nM | TGI (SF-268 CNS): 11900 nM | GI50 (SF-295 CNS): 153 nM | TGI (SF-295 CNS): 3020 nM | GI50 (SF-539 CNS): 3070 nM | TGI (SF-539 CNS): 13800 nM | GI50 (SK-MEL-28 melanoma): 620 nM | TGI (SK-MEL-28 melanoma): 3760 nM | GI50 (SK-MEL-5 melanoma): 395 nM | TGI (SK-MEL-5 melanoma): 5310 nM | GI50 (SK-OV-3 ovarian): 282 nM | TGI (SK-OV-3 ovarian): 2360 nM | GI50 (SN12C renal): 613 nM | TGI (SN12C renal): 4690 nM | GI50 (SNB-19 CNS): 2840 nM | TGI (SNB-19 CNS): 12700 nM | GI50 (SNB-75 CNS): 892 nM | TGI (SNB-75 CNS): 5370 nM | GI50 (SR leukemia): 310 nM | TGI (SR leukemia): 1020 nM | GI50 (SW-620 colon): 3820 nM | TGI (SW-620 colon): 16400 nM | GI50 (T-47D breast): 946 nM | TGI (T-47D breast): 12300 nM | GI50 (TK-10 renal): 868 nM | TGI (TK-10 renal): 6620 nM | GI50 (UACC-257 melanoma): 1020 nM | TGI (UACC-257 melanoma): 4890 nM | GI50 (UACC-62 melanoma): 454 nM | TGI (UACC-62 melanoma): 2520 nM | GI50 (UO-31 renal): 2650 nM | TGI (UO-31 renal): 16300 nM
